# Data as given in US20230124720A1, “APPLICATION OF ACRIDINEDIONE COMPOUND IN PREPARATION OF ANTI-DIABETIC DRUGS” (THE FOURTH MILITARY MEDICAL UNIVERSITY, priority 2020, published 2023).
# Tests used:
# [1] = tested on: STZ-induced T2DM rats; assay: Postprandial blood glucose in STZ-induced T2DM rats; type: in vivo, rat; conditions: for reduction in blood glucose compared to the TD group: end of administration
# Procedure: 150 male SD rats, housed in cages in a clean constant temperature (23±2° C.) and humidity (55±10%) animal house, were manually adjusted on a daily 12 h/12 h diurnal light cycle with free access to water. After 3 days of adaptive feeding, 150 rats were randomly divided into normal and model groups. The normal (Con, n=15) group of rats remained on raw chow and the model group (n=135) of rats were given high fat high sugar chow. All rats were fed twice daily and the amount of feed was adjusted as needed to ensure adequate feed. After 8 weeks of group feeding, the model group rats were given an intraperitoneal injection of 25 mg/kg STZ solution with a 12 h fast prior to injection. After injection, feeding was continued as in the original method, blood was taken from the tail vein at 72 h for blood glucose measurement, and rats with fasting blood glucose levels ≥11.1 mmol/L on different days were screened for successful artificial induction of T2DM and administered in groups for the next experiment. 135 rats with successful modeling were randomly divided into 9 groups: […] (2) 0.01 mg/kg ADD-16 administration group (ADD I, n=15): daily administration of 0.01 mg/kg ADD-16 solution by gavage; (3) 0.1 mg/kg ADD-16 administration group (ADD II, n=15): daily administration of a 0.1 mg/kg ADD-16 solution by gavage; (4) 1 mg/kg ADD-16 administration group (ADD III, n=15): daily administration of a 1 mg/kg ADD-16 solution by gavage; (5) 3 mg/kg ADD-16 administration group (ADD IV, n=15): daily administration of a 3 mg/kg ADD-16 solution by gavage; (6) 10 mg/kg ADD-16 administration group (ADD V, n=15): daily administration of a 10 mg/kg ADD-16 solution by gavage; (7) 50 mg/kg ADD-16 administration group (ADD VI, n=15): daily administration of a 50 mg/kg ADD-16 solution by gavage; […] (9) Sitagliptin control group (ST, n=15): daily administration of a 6 mg/kg sitagliptin solution by gavage. […] Relevant indicators of lipid metabolism were measured after the end of the study.
# [2] = tested on: MIN6 cells; assay: Insulin secretion in PA-induced insulin-resistant MIN6 cells; type: cell-based, mouse
# Procedure: MIN6 cells were seeded in 24-well plates and cultured as described in step 2.1 to a cell confluency of more than 80% and administrated in the following groups, with 12 replicates per group: (1) normal control group (Con): cultured with blank 1640 medium; (2) insulin resistance model panel (IR): treated with 0.125 mmol/L PA for 24 h to induce establishment of an insulin resistance model; (3) ADD-16 administration group (ADD): 10 μmol/L ADD-16 intervention was administered for 24 h after successful establishment of the insulin resistance model; (4) TAK875 control group (TAK875): 10 μmol/L TAK875 was administered as a positive control drug intervention for 24 h after successful establishment of the insulin resistance model; (5) metformin control group (MT): 10 mmol/L metformin was administered as a positive control drug intervention for 24 h after successful establishment of the insulin resistance model; (6) sitagliptin control group (ST): 10 μmol/L sitagliptin was administered as a positive control drug intervention for 24 h after successful establishment of the insulin resistance model. After the group administration, the medium was aspirated and washed 2 times with a KRB buffer without sugar, followed by the addition of the KRB buffer without sugar. […] After incubation at 37° C. for 1 h, all the medium in the wells was aspirated and centrifuged at 2000 rmp/min for 20 min, and the supernatant was collected and stored at −20° C. The insulin content was measured for each group.
smiles,measurement,setting,value
CC1(C)CC(=O)C2=C(C1)NC1=C(C(=O)CC(C)(C)C1)C2c1ccc(OCc2ccc(C(=O)O)cc2)c(Br)c1 [ADD-16],reduction in blood glucose compared to the TD group,"[1]; ADD IV group, 3 mg/kg daily by gavage",55.0%
same,reduction in blood glucose compared to the TD group,"[1]; ADD V group, 10 mg/kg daily by gavage",56.8%
same,reduction in blood glucose compared to the TD group,"[1]; ADD VI group, 50 mg/kg daily by gavage",56.2%
same,hypoglycemic effect (in words),"[1]; T2DM rats, 3, 10, 50 mg/kg",significant hypoglycemic effect
same,insulin secretion level in insulin-resistant MIN6 cells (in words),"[2]; PA-induced IR model, 10 μmol/L, 24 h, 2.8 and 16.7 mmol/L glucose, P<0.001",even higher than in Con group
same,insulinotropic effect compared with TAK875 in insulin-resistant MIN6 cells (in words),[2]; same administration concentrations (10 μmol/L),slightly better than TAK875
